In patent publication US7018995B2, “Carbonate and carbamate modified forms of glucocorticoids” (Sepracor Inc., priority 2002, dated 2006):

How the values were obtained:
[1] = test system: WI-38 human lung fibroblast line (IL-1β-stimulated PGE2); assay: Inhibition of IL-1β-stimulated PGE2 release in WI-38 cells; assay type: cell-based; details: WI-38 cells stimulated with recombinant human IL-1β, 24 hours incubation, PGE2 by EIA; read-out: IC50 (level of PGE2 in supernatants)
Method: Compounds as described above were tested in the following assay for biological activity. The WI-38 human lung fibroblast line was obtained from the ATCC (catalog number 75-CCL) and maintained in Basal Medium Eagle with Earle's salts (GibcoBRL product number 21010-046) supplemented with 2 mM glutamine and 10% fetal calf serum at 37° C. in a 7% CO2 (balance air), humidified atmosphere. One week before experiments were done, the WI-38 cells were seeded into 48-well tissue culture dishes and maintained in media containing 10% fetal calf serum. The cells were used when confluent. The day before the experiment the cells were fed fresh media containing 10% fetal calf serum (0.25 mL per well). On the day of the experiment the media was removed from the cells and 0.25 mL of media containing 5% fetal calf serum added.
To determine the IC50 values for the compounds, 1 to 1000 dilutions were made of the 5 mM stock solutions in DMSO to give 5 uM solutions. These solutions were serially diluted 1:2 in DMSO to give a series of 12 dilutions ranging from 5 uM to 2.4 nM. 0.0025 mL aliquots of the 12 dilutions were added to wells of the WI-38 cells to give final compound concentrations ranging from 50 nM to 0.024 nM. The cells were stimulated by addition of 0.001 mL of 0.025 ug/mL recombinant human Interleukin-1β (IL-1β-Calbiochem catalog number 407615) in 0.1% bovine serum albumin in phosphate buffered saline. The cells were incubated for 24 hours and the supernatants harvested. The level of PGE2 in the supernatants was assayed using a commercial Enzyme Immuno Assay (EIA) kit (Cayman Chemical catalog number 514010) after diluting 1:10 in EIA buffer according to the manufacturer's directions. The data from these experiments was fit to a 4 parameter logistic function using the IC50 routine in the Grafit 4 program (Erithecus software).

rat paw edema = assay: Carrageenan rat paw edema model; assay type: in vivo; details: for maximum activity at 24 hours / onset of action: rat paw edema; for reduction of swelling (percent inhibition of edema volume vs vehicle): injected into paw
Method: The compounds of the invention were also tested in vivo in a rat paw edema model [Hirschelmann, R. and Bekemeier, H., Int J Tissue React 6, 471-475 (1984)], which persons of skill in the art accept as predictive of efficacy in treating asthma and rhinitis in humans.
Rat Paw Edema Protocol: Male Sprague Dawley rats Rj: SD (IOPS Han) (CEJ, France) weighing between 140 and 160 grams were used in the studies. Animals were housed in a temperature (19.5-24.5° C.), relative humidity (40-70%) and 12-hour light/dark cycle (light 6:00 a.m. to 6:00 p.m.)-controlled room, with ad libitum access to filtered tap-water and standard pelleted laboratory chow (U.A.R., France) throughout the studies. Carrageenan lambda type IV (Sigma, France) was prepared as a 2% (w/v) solution in saline. Compounds to be tested were dissolved in dimethylsulfoxide (DMSO) such that the indicated doses were in a final volume of 0.05 mL. Doses were expressed as mg/paw free active substance. From 17 to 19 hours before the studies the rats were fasted with free access to water. The paw volumes of the left hindpaws of the rats were measured using an electronic plethysmometer type 7140 (Ugo Basile-Italy) at time=0. Paw edema was then induced by injection of 0.05 mL of 2% carrageenan solution into the left hindpaws of the rats. Immediately after injection of the carrageenan, compounds in DMSO or vehicle alone were injected into the same paw in a volume of 0.05 mL in a blind and random fashion.
The paw volumes were measured at 1.5 hours, 3 hours, 4.5 hours and 24 hours after administration of the compounds. The edema volume of each rat at each time point was expressed as the change from the initial paw volume (time=0). A total of 5 rats were used for each compound dose and the average edema volume calculated for each dose. The anti-inflammatory effect in treated groups was expressed as the percent inhibition of edema volume compared to the vehicle-treated group at 1.5 hours, 3 hours, 4.5 hours and 24 hours.

[2] = at 24 hours, equimolar doses equivalent to 10 μg per paw of budesonide, FIG. 1

Row | Compound | IC50 [1] [nM] | maximum activity at 24 hours (rat paw edema) [%] | also measured
1 | CCCC1OC2CC3C4CCC5=CC(=O)C=CC5(C)C4C(O)CC3(C)C2(C(=O)COC(=O)OCC(C)C)O1 (stereo not shown) [Example 1, Budesonide isobutylcarbonate] | 0.12 | – | –
2 | CCCCCCCCCCOC(=O)OCC(=O)[C@@]12OC(CCC)O[C@@H]1C[C@H]1[C@@H]3CCC4=CC(=O)C=C[C@]4(C)[C@H]3[C@@H](O)C[C@@]12C (stereo partly shown) [Example 8, Budesonide decylcarbonate] | – | – | more efficacious than budesonide itself (rat paw edema; [2]): 30%
3 | CCCC1OC2CC3C4CCC5=CC(=O)C=CC5(C)C4C(O)CC3(C)C2(C(=O)COC(=O)OCCCCCCCCCCCN(C)C)O1 (stereo not shown) [Example 15, Budesonide 11-dimethylaminoundecylcarbonate] | – | 73 | –
4 | CCCC1O[C@@H]2C[C@H]3[C@@H]4CCC5=CC(=O)C=C[C@]5(C)[C@H]4[C@@H](O)C[C@]3(C)[C@]2(C(=O)CO)O1 (stereo partly shown) [budesonide, reference compound] | 0.2 | – | reduction of swelling (percent inhibition of edema volume vs vehicle) (rat paw edema; [2]): 46%
5 | Budesonide dodecylcarbonate [Example 2] | 0.53 | – | reduction of swelling (percent inhibition of edema volume vs vehicle) (rat paw edema; [2]): 88%
6 | Budesonide farnesolcarbonate [Example 17] | – | 86 | onset of action (rat paw edema): normal onset of action
7 | Budesonide heptylcarbonate [Example 14] | – | – | efficacy compared with the C6 carbonate ester (rat paw edema; [2]): more efficacious
8 | Budesonide hexylcarbonate [Example 3] | 0.14 | – | –
9 | Budesonide phytolcarbonate [Example 16] | – | 69 | onset of action (rat paw edema): normal onset of action
